Experimental data from ChEMBL document CHEMBL3045835, “Comparative study of conventional and microwave-assisted synthesis of some Schiff bases and their potential as antimicrobial agents” (2012).
Converted amounts (≈) assume the structure as drawn.

Assays:
Assay type in all cases: functional
[1] = test system: Pseudomonas aeruginosa; assay: Antibacterial activity against Pseudomonas aeruginosa MTCC 424 at 500 ug/ml after 18 hr by cup-plate method; conditions: MTCC 424, 18 h, read-out: DIZ
[2] = test system: Pseudomonas aeruginosa; assay: Antibacterial activity against Pseudomonas aeruginosa MTCC 424 at 200 ug/ml after 18 hr by cup-plate method; conditions: MTCC 424, 18 h, read-out: DIZ
[3] = test system: Pseudomonas aeruginosa; assay: Antibacterial activity against Pseudomonas aeruginosa MTCC 424 at 100 ug/ml after 18 hr by cup-plate method; conditions: MTCC 424, 18 h, read-out: DIZ
[4] = test system: Micrococcus luteus; assay: Antibacterial activity against Micrococcus luteus MTCC 1538 at 1500 ug/ml after 18 hr by cup-plate method; conditions: MTCC 1538, 18 h, read-out: DIZ
[5] = test system: Micrococcus luteus; assay: Antibacterial activity against Micrococcus luteus MTCC 1538 at 1000 ug/ml after 18 hr by cup-plate method; conditions: MTCC 1538, 18 h, read-out: DIZ
[6] = test system: Micrococcus luteus; assay: Antibacterial activity against Micrococcus luteus MTCC 1538 at 500 ug/ml after 18 hr by cup-plate method; conditions: MTCC 1538, 18 h, read-out: DIZ
[7] = test system: Micrococcus luteus; assay: Antibacterial activity against Micrococcus luteus MTCC 1538 at 200 ug/ml after 18 hr by cup-plate method; conditions: MTCC 1538, 18 h, read-out: DIZ
[8] = test system: Micrococcus luteus; assay: Antibacterial activity against Micrococcus luteus MTCC 1538 at 100 ug/ml after 18 hr by cup-plate method; conditions: MTCC 1538, 18 h, read-out: DIZ
[9] = test system: Bacillus pumilus; assay: Antibacterial activity against Bacillus pumilus MTCC 1456 at 1500 ug/ml after 18 hr by cup-plate method; conditions: MTCC 1456, 18 h, read-out: DIZ
[10] = test system: Bacillus pumilus; assay: Antibacterial activity against Bacillus pumilus MTCC 1456 at 1000 ug/ml after 18 hr by cup-plate method; conditions: MTCC 1456, 18 h, read-out: DIZ
[11] = test system: Bacillus pumilus; assay: Antibacterial activity against Bacillus pumilus MTCC 1456 at 500 ug/ml after 18 hr by cup-plate method; conditions: MTCC 1456, 18 h, read-out: DIZ
[12] = test system: Bacillus pumilus; assay: Antibacterial activity against Bacillus pumilus MTCC 1456 at 200 ug/ml after 18 hr by cup-plate method; conditions: MTCC 1456, 18 h, read-out: DIZ
[13] = test system: Bacillus pumilus; assay: Antibacterial activity against Bacillus pumilus MTCC 1456 at 100 ug/ml after 18 hr by cup-plate method; conditions: MTCC 1456, 18 h, read-out: DIZ
[14] = test system: Bacillus subtilis; assay: Antibacterial activity against Bacillus subtilis MTCC 441 at 1000 ug/ml after 18 hr by cup plate method; conditions: MTCC 441, 18 h, read-out: DIZ
[15] = test system: Bacillus subtilis; assay: Antibacterial activity against Bacillus subtilis MTCC 441 at 1500 ug/ml after 18 hr by cup plate method; conditions: MTCC 441, 18 h, read-out: DIZ
[16] = test system: Bacillus subtilis; assay: Antibacterial activity against Bacillus subtilis MTCC 441 at 500 ug/ml after 18 hr by cup plate method; conditions: MTCC 441, 18 h, read-out: DIZ
[17] = test system: Bacillus subtilis; assay: Antibacterial activity against Bacillus subtilis MTCC 441 at 200 ug/ml after 18 hr by cup plate method; conditions: MTCC 441, 18 h, read-out: DIZ
[18] = test system: Bacillus subtilis; assay: Antibacterial activity against Bacillus subtilis MTCC 441 at 100 ug/ml after 18 hr by cup plate method; conditions: MTCC 441, 18 h, read-out: DIZ
[19] = test system: Staphylococcus aureus; assay: Antibacterial activity against Staphylococcus aureus MTCC 1430 at 1500 ug/ml after 18 hr by cup-plate method; conditions: MTCC 1430, 18 h, read-out: DIZ
[20] = test system: Staphylococcus aureus; assay: Antibacterial activity against Staphylococcus aureus MTCC 1430 at 1000 ug/ml after 18 hr by cup-plate method; conditions: MTCC 1430, 18 h, read-out: DIZ
[21] = test system: Staphylococcus aureus; assay: Antibacterial activity against Staphylococcus aureus MTCC 1430 at 500 ug/ml after 18 hr by cup-plate method; conditions: MTCC 1430, 18 h, read-out: DIZ
[22] = test system: Staphylococcus aureus; assay: Antibacterial activity against Staphylococcus aureus MTCC 1430 at 200 ug/ml after 18 hr by cup-plate method; conditions: MTCC 1430, 18 h, read-out: DIZ
[23] = test system: Staphylococcus aureus; assay: Antibacterial activity against Staphylococcus aureus MTCC 1430 at 100 ug/ml after 18 hr by cup-plate method; conditions: MTCC 1430, 18 h, read-out: DIZ
[24] = test system: Penicillium chrysogenum; assay: Antifungal activity against Penicillium chrysogenum MTCC 161 after 24 hr by broth dilution method; conditions: MTCC 161, 24 h
[25] = test system: Aspergillus niger; assay: Antifungal activity against Aspergillus niger MTCC 2546 after 24 hr by broth dilution method; conditions: MTCC 2546, 24 h
[26] = test system: Escherichia coli; assay: Antibacterial activity against Escherichia coli MTCC 1573 after 24 hr by broth dilution method; conditions: MTCC 1573, 24 h
[27] = test system: Pseudomonas fluorescens; assay: Antibacterial activity against Pseudomonas fluorescens MTCC 2421 after 24 hr by broth dilution method; conditions: MTCC 2421, 24 h
[28] = test system: Pseudomonas aeruginosa; assay: Antibacterial activity against Pseudomonas aeruginosa MTCC 424 after 24 hr by broth dilution method; conditions: MTCC 424, 24 h
[29] = test system: Micrococcus luteus; assay: Antibacterial activity against Micrococcus luteus MTCC 1538 after 24 hr by broth dilution method; conditions: MTCC 1538, 24 h
[30] = test system: Bacillus pumilus; assay: Antibacterial activity against Bacillus pumilus MTCC 1456 after 24 hr by broth dilution method; conditions: MTCC 1456, 24 h
[31] = test system: Staphylococcus aureus; assay: Antibacterial activity against Staphylococcus aureus MTCC 1430 after 24 hr by broth dilution method; conditions: MTCC 1430, 24 h
[32] = test system: Bacillus subtilis; assay: Antibacterial activity against Bacillus subtilis MTCC 441 after 24 hr by broth dilution method; conditions: MTCC 441, 24 h
[33] = test system: Pseudomonas fluorescens; assay: Antibacterial activity against Pseudomonas fluorescens MTCC 2421 at 1000 ug/ml after 18 hr by cup-plate method; conditions: MTCC 2421, 18 h, read-out: DIZ
[34] = test system: Pseudomonas fluorescens; assay: Antibacterial activity against Pseudomonas fluorescens MTCC 2421 at 1500 ug/ml after 18 hr by cup-plate method; conditions: MTCC 2421, 18 h, read-out: DIZ
[35] = test system: Pseudomonas fluorescens; assay: Antibacterial activity against Pseudomonas fluorescens MTCC 2421 at 500 ug/ml after 18 hr by cup-plate method; conditions: MTCC 2421, 18 h, read-out: DIZ
[36] = test system: Pseudomonas fluorescens; assay: Antibacterial activity against Pseudomonas fluorescens MTCC 2421 at 200 ug/ml after 18 hr by cup-plate method; conditions: MTCC 2421, 18 h, read-out: DIZ
[37] = test system: Penicillium chrysogenum; assay: Antifungal activity against Penicillium chrysogenum MTCC 161 at 1500 ug/ml after 18 hr by cup-plate method; conditions: MTCC 161, 18 h, read-out: DIZ
[38] = test system: Penicillium chrysogenum; assay: Antifungal activity against Penicillium chrysogenum MTCC 161 at 1000 ug/ml after 18 hr by cup-plate method; conditions: MTCC 161, 18 h, read-out: DIZ
[39] = test system: Penicillium chrysogenum; assay: Antifungal activity against Penicillium chrysogenum MTCC 161 at 500 ug/ml after 18 hr by cup-plate method; conditions: MTCC 161, 18 h, read-out: DIZ
[40] = test system: Penicillium chrysogenum; assay: Antifungal activity against Penicillium chrysogenum MTCC 161 at 200 ug/ml after 18 hr by cup-plate method; conditions: MTCC 161, 18 h, read-out: DIZ
[41] = test system: Penicillium chrysogenum; assay: Antifungal activity against Penicillium chrysogenum MTCC 161 at 100 ug/ml after 18 hr by cup-plate method; conditions: MTCC 161, 18 h, read-out: DIZ
[42] = test system: Aspergillus niger; assay: Antifungal activity against Aspergillus niger MTCC 2546 at 1000 ug/ml after 18 hr by cup-plate method; conditions: MTCC 2546, 18 h, read-out: DIZ
[43] = test system: Aspergillus niger; assay: Antifungal activity against Aspergillus niger MTCC 2546 at 1500 ug/ml after 18 hr by cup-plate method; conditions: MTCC 2546, 18 h, read-out: DIZ
[44] = test system: Aspergillus niger; assay: Antifungal activity against Aspergillus niger MTCC 2546 at 500 ug/ml after 18 hr by cup-plate method; conditions: MTCC 2546, 18 h, read-out: DIZ
[45] = test system: Aspergillus niger; assay: Antifungal activity against Aspergillus niger MTCC 2546 at 100 ug/ml after 18 hr by cup-plate method; conditions: MTCC 2546, 18 h, read-out: DIZ
[46] = test system: Aspergillus niger; assay: Antifungal activity against Aspergillus niger MTCC 2546 at 200 ug/ml after 18 hr by cup-plate method; conditions: MTCC 2546, 18 h, read-out: DIZ
[47] = test system: Escherichia coli; assay: Antibacterial activity against Escherichia coli MTCC 1573 at 1500 ug/ml after 18 hr by cup-plate method; conditions: MTCC 1573, 18 h, read-out: DIZ
[48] = test system: Escherichia coli; assay: Antibacterial activity against Escherichia coli MTCC 1573 at 500 ug/ml after 18 hr by cup-plate method; conditions: MTCC 1573, 18 h, read-out: DIZ
[49] = test system: Escherichia coli; assay: Antibacterial activity against Escherichia coli MTCC 1573 at 1000 ug/ml after 18 hr by cup-plate method; conditions: MTCC 1573, 18 h, read-out: DIZ
[50] = test system: Escherichia coli; assay: Antibacterial activity against Escherichia coli MTCC 1573 at 200 ug/ml after 18 hr by cup-plate method; conditions: MTCC 1573, 18 h, read-out: DIZ
[51] = test system: Escherichia coli; assay: Antibacterial activity against Escherichia coli MTCC 1573 at 100 ug/ml after 18 hr by cup-plate method; conditions: MTCC 1573, 18 h, read-out: DIZ
[52] = test system: Pseudomonas fluorescens; assay: Antibacterial activity against Pseudomonas fluorescens MTCC 2421 at 100 ug/ml after 18 hr by cup-plate method; conditions: MTCC 2421, 18 h, read-out: DIZ
[53] = test system: Pseudomonas aeruginosa; assay: Antibacterial activity against Pseudomonas aeruginosa MTCC 424 at 1500 ug/ml after 18 hr by cup-plate method; conditions: MTCC 424, 18 h, read-out: DIZ
[54] = test system: Pseudomonas aeruginosa; assay: Antibacterial activity against Pseudomonas aeruginosa MTCC 424 at 1000 ug/ml after 18 hr by cup-plate method; conditions: MTCC 424, 18 h, read-out: DIZ

MIC [24]: 300 µg/mL (≈ 1350 µM)
MIC [25]: 400 µg/mL (≈ 1800 µM)
MIC [26]: 200 µg/mL (≈ 902 µM)
MIC [27]: 300 µg/mL (≈ 1350 µM)
MIC [28]: 300 µg/mL (≈ 1350 µM)
MIC [29]: 400 µg/mL (≈ 1800 µM)
MIC [30]: 200 µg/mL (≈ 902 µM)
MIC [31]: 300 µg/mL (≈ 1350 µM)
MIC [32]: 400 µg/mL (≈ 1800 µM)
SMILES: Clc1ccc(/N=C/c2cccs2)cc1
zone of inhibition at 500 µg/mL [1]: 16 mm
zone of inhibition at 200 µg/mL [2]: 13 mm
zone of inhibition at 100 µg/mL [3]: 10 mm
zone of inhibition at 1500 µg/mL [4]: 24 mm
zone of inhibition at 1000 µg/mL [5]: 20 mm
zone of inhibition at 500 µg/mL [6]: 18 mm
zone of inhibition at 200 µg/mL [7]: 15 mm
zone of inhibition at 100 µg/mL [8]: 11 mm
zone of inhibition at 1500 µg/mL [9]: 20 mm
zone of inhibition at 1000 µg/mL [10]: 18 mm
zone of inhibition at 500 µg/mL [11]: 17 mm
zone of inhibition at 200 µg/mL [12]: 15 mm
zone of inhibition at 100 µg/mL [13]: 13 mm
zone of inhibition at 1000 µg/mL [14]: 18 mm
zone of inhibition at 1500 µg/mL [15]: 21 mm
zone of inhibition at 500 µg/mL [16]: 14 mm
zone of inhibition at 200 µg/mL [17]: 12 mm
zone of inhibition at 100 µg/mL [18]: 11 mm
zone of inhibition at 1500 µg/mL [19]: 18 mm
zone of inhibition at 1000 µg/mL [20]: 16 mm
zone of inhibition at 500 µg/mL [21]: 15 mm
zone of inhibition at 200 µg/mL [22]: 13 mm
zone of inhibition at 100 µg/mL [23]: 12 mm
zone of inhibition at 1000 µg/mL [33]: 18 mm
zone of inhibition at 1500 µg/mL [34]: 20 mm
zone of inhibition at 500 µg/mL [35]: 16 mm
zone of inhibition at 200 µg/mL [36]: 13 mm
zone of inhibition at 1500 µg/mL [37]: 19 mm
zone of inhibition at 1000 µg/mL [38]: 17 mm
zone of inhibition at 500 µg/mL [39]: 16 mm
zone of inhibition at 200 µg/mL [40]: 14 mm
zone of inhibition at 100 µg/mL [41]: 13 mm
zone of inhibition at 1000 µg/mL [42]: 17 mm
zone of inhibition at 1500 µg/mL [43]: 18 mm
zone of inhibition at 500 µg/mL [44]: 12 mm
zone of inhibition at 100 µg/mL [45]: 10 mm
zone of inhibition at 200 µg/mL [46]: 11 mm
zone of inhibition at 1500 µg/mL [47]: 20 mm
zone of inhibition at 500 µg/mL [48]: 16 mm
zone of inhibition at 1000 µg/mL [49]: 19 mm
zone of inhibition at 200 µg/mL [50]: 15 mm
zone of inhibition at 100 µg/mL [51]: 13 mm
zone of inhibition at 100 µg/mL [52]: 11 mm
zone of inhibition at 1500 µg/mL [53]: 19 mm
zone of inhibition at 1000 µg/mL [54]: 17 mm
